Assay results from publication PMC11845477, “Exploring the principles behind antibiotics with limited resistance” (Nature Communications, 2025).
Where a SMILES comes first, the peptide text is derived from it. Bridges are numbered along the chain shown (N, C = ends). [ ]: non-standard residue; d: D form. The star is where a group is joined. X1 = NC[C@@H](CC(=O)*)c1cccc(Cl)c1; Dab = NCC[C@H](N)C(=O)O; Dap = NC[C@H](N)C(=O)O

System: A. baumannii ATCC 17978 (SEN) and A. baumannii ATCC BAA-1605 (MDR)
Test: Adaptive laboratory evolution (ALE), relative MIC of evolved lines
Assay type: cell-based, Acinetobacter baumannii
How it was run: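 Ten parallel populations per antibiotic–ancestor pair were evolved in MHB at 37 °C, starting near 50% growth-inhibiting drug. Every 72 h they were passaged into 0.5–2.5× increasing concentrations, keeping the highest-drug well with OD600 > 0.2.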

[1] = AB-MDR (Acinetobacter baumannii ATCC BAA 1605), evolved line 2
[2] = AB-SEN (Acinetobacter baumannii ATCC 17978), evolved line 1
[3] = AB-SEN (Acinetobacter baumannii ATCC 17978), evolved line 3
[4] = AB-SEN (Acinetobacter baumannii ATCC 17978), evolved line 5
[5] = AB-SEN (Acinetobacter baumannii ATCC 17978), evolved line 8
[6] = AB-SEN (Acinetobacter baumannii ATCC 17978), evolved line 9

## CC(C)C[C@@H]1NC(=O)[C@@H](Cc2ccccc2)NC(=O)[C@H](CCN)NC(=O)[C@@H](NC(=O)[C@H](CN)NC(=O)[C@@H](NC(=O)C[C@H](CN)c2cccc(Cl)c2)[C@@H](C)O)CCNC(=O)[C@H]([C@@H](C)O)NC(=O)[C@H](CCN)NC(=O)[C@H](CCN)NC1=O [SPR206] (X1-T[Dap][Dab][Dab][dF]L[Dab][Dab]T; lactam 3-C (inferred); N-terminus assumed)
AB-MDR (ATCC BAA 1605), evolved line 7, evolved vs ancestor
  Relative MIC: 8192
AB-MDR (ATCC BAA 1605), evolved line 8, evolved vs ancestor
  Relative MIC: 4096
AB-MDR (ATCC BAA 1605), evolved line 9, evolved vs ancestor
  Relative MIC: 8192
AB-MDR (ATCC BAA 1605), evolved line 10, evolved vs ancestor
  Relative MIC: 1024
AB-MDR (Acinetobacter baumannii ATCC BAA 1605), evolved line 1
  Relative MIC: 2048
[1]
  Relative MIC: 8192
  Relative MIC (log10): 3.913 log10
AB-MDR (Acinetobacter baumannii ATCC BAA 1605), evolved line 5
  Relative MIC (log10): 3.913 log10
AB-MDR (Acinetobacter baumannii ATCC BAA 1605), evolved line 6
  Relative MIC (log10): 3.913 log10
AB-MDR (Acinetobacter baumannii ATCC BAA 1605), evolved line 7
  Relative MIC (log10): 3.913 log10
AB-MDR (Acinetobacter baumannii ATCC BAA 1605), evolved line 9
  Relative MIC (log10): 3.913 log10
AB-MDR ATCC BAA 1605, evolved line 1
  MIC of evolved line: 256 µg/mL
AB-MDR ATCC BAA 1605, evolved line 2
  MIC of evolved line: 1020 µg/mL
AB-MDR ATCC BAA 1605, evolved line 3
  MIC of evolved line: 64 µg/mL
AB-MDR ATCC BAA 1605, evolved line 4
  MIC of evolved line: 256 µg/mL
AB-MDR ATCC BAA 1605, evolved line 5
  MIC of evolved line: 1020 µg/mL
AB-MDR ATCC BAA 1605, evolved line 6
  MIC of evolved line: 1020 µg/mL
AB-MDR ATCC BAA 1605, evolved line 7
  MIC of evolved line: 1020 µg/mL
AB-MDR ATCC BAA 1605, evolved line 8
  MIC of evolved line: 512 µg/mL
AB-MDR ATCC BAA 1605, evolved line 9
  MIC of evolved line: 1020 µg/mL
AB-MDR ATCC BAA 1605, evolved line 10
  MIC of evolved line: 128 µg/mL
AB-SEN (A. baumannii ATCC 17978), evolved line 1 of the given antibiotic
  MIC of evolved line: 256 µg/mL
AB-SEN (A. baumannii ATCC 17978), evolved line 1 vs ancestor
  Relative MIC: 2048
AB-SEN (A. baumannii ATCC 17978), evolved line 2 of the given antibiotic
  MIC of evolved line: 1020 µg/mL
AB-SEN (A. baumannii ATCC 17978), evolved line 2 vs ancestor
  Relative MIC: 8192
AB-SEN (A. baumannii ATCC 17978), evolved line 3 of the given antibiotic
  MIC of evolved line: 64 µg/mL
AB-SEN (A. baumannii ATCC 17978), evolved line 3 vs ancestor
  Relative MIC: 512
AB-SEN (A. baumannii ATCC 17978), evolved line 4 of the given antibiotic
  MIC of evolved line: 256 µg/mL
AB-SEN (A. baumannii ATCC 17978), evolved line 4 vs ancestor
  Relative MIC: 2048
AB-SEN (A. baumannii ATCC 17978), evolved line 5 of the given antibiotic
  MIC of evolved line: 1020 µg/mL
AB-SEN (A. baumannii ATCC 17978), evolved line 5 vs ancestor
  Relative MIC: 8192
AB-SEN (A. baumannii ATCC 17978), evolved line 6 of the given antibiotic
  MIC of evolved line: 1020 µg/mL
AB-SEN (A. baumannii ATCC 17978), evolved line 6 vs ancestor
  Relative MIC: 8192
AB-SEN (A. baumannii ATCC 17978), evolved line 7 of the given antibiotic
  MIC of evolved line: 1020 µg/mL
AB-SEN (A. baumannii ATCC 17978), evolved line 7 vs ancestor
  Relative MIC: 8192
AB-SEN (A. baumannii ATCC 17978), evolved line 8 of the given antibiotic
  MIC of evolved line: 512 µg/mL
AB-SEN (A. baumannii ATCC 17978), evolved line 8 vs ancestor
  Relative MIC: 4096
AB-SEN (A. baumannii ATCC 17978), evolved line 9 of the given antibiotic
  MIC of evolved line: 1020 µg/mL
AB-SEN (A. baumannii ATCC 17978), evolved line 9 vs ancestor
  Relative MIC: 8192
AB-SEN (ATCC 17978), evolved line 10
  MIC of evolved line: 128 µg/mL
AB-SEN (ATCC 17978), evolved line 10, evolved vs ancestor
  Relative MIC: 1024
[2]
  Relative MIC: 2048
  Relative MIC (log10): 3.311 log10
AB-SEN (Acinetobacter baumannii ATCC 17978), evolved line 2
  Relative MIC: 8192
[3]
  Relative MIC: 512
  Relative MIC (log10): 2.709 log10
AB-SEN (Acinetobacter baumannii ATCC 17978), evolved line 4
  Relative MIC: 2048
[4]
  Relative MIC: 8192
  Relative MIC (log10): 3.913 log10
AB-SEN (Acinetobacter baumannii ATCC 17978), evolved line 6
  Relative MIC: 8192
[5]
  Relative MIC: 4096
  Relative MIC (log10): 3.612 log10
[6]
  Relative MIC: 8192
  Relative MIC (log10): 3.913 log10
AB-SEN (Acinetobacter baumannii ATCC 17978), evolved line 10
  Relative MIC: 1024
AB-SEN, Acinetobacter baumannii ATCC 17978, evolved line 7
  Relative MIC: 8192
ALE, A. baumannii ATCC 17978 (AB-SEN), evolved line 1
  Relative MIC: 2048
ALE, A. baumannii ATCC 17978 (AB-SEN), evolved line 2
  Relative MIC: 8192
ALE, A. baumannii ATCC 17978 (AB-SEN), evolved line 3
  Relative MIC: 512
ALE, A. baumannii ATCC 17978 (AB-SEN), evolved line 4
  Relative MIC: 2048
ALE, A. baumannii ATCC 17978 (AB-SEN), evolved line 5
  Relative MIC: 8192
ALE, A. baumannii ATCC 17978 (AB-SEN), evolved line 6
  Relative MIC: 8192
ALE, A. baumannii ATCC 17978 (AB-SEN), evolved line 7
  Relative MIC: 8192
ALE, A. baumannii ATCC 17978 (AB-SEN), evolved line 8
  Relative MIC: 4096
ALE, A. baumannii ATCC 17978 (AB-SEN), evolved line 9
  Relative MIC: 8192
ALE, A. baumannii ATCC 17978 (AB-SEN), evolved line 10
  Relative MIC: 1024
ALE, A. baumannii ATCC BAA 1605 (AB-MDR), evolved line 1
  Relative MIC: 2048
ALE, A. baumannii ATCC BAA 1605 (AB-MDR), evolved line 2
  Relative MIC: 8192
ALE, A. baumannii ATCC BAA 1605 (AB-MDR), evolved line 3
  Relative MIC: 512
ALE, A. baumannii ATCC BAA 1605 (AB-MDR), evolved line 4
  Relative MIC: 2048
ALE, A. baumannii ATCC BAA 1605 (AB-MDR), evolved line 5
  Relative MIC: 8192
ALE, A. baumannii ATCC BAA 1605 (AB-MDR), evolved line 6
  Relative MIC: 8192
ALE, A. baumannii ATCC BAA 1605 (AB-MDR), evolved line 7
  Relative MIC: 8192
ALE, A. baumannii ATCC BAA 1605 (AB-MDR), evolved line 8
  Relative MIC: 4096
ALE, A. baumannii ATCC BAA 1605 (AB-MDR), evolved line 9
  Relative MIC: 8192
ALE, A. baumannii ATCC BAA 1605 (AB-MDR), evolved line 10
  Relative MIC: 1024
Acinetobacter baumannii ATCC 17978 (AB-SEN), evolved line 1
  Relative MIC: 2048
Acinetobacter baumannii ATCC 17978 (AB-SEN), evolved line 2
  Relative MIC: 8192
Acinetobacter baumannii ATCC 17978 (AB-SEN), evolved line 3
  Relative MIC: 512
Acinetobacter baumannii ATCC 17978 (AB-SEN), evolved line 4
  Relative MIC: 2048
Acinetobacter baumannii ATCC 17978 (AB-SEN), evolved line 5
  Relative MIC: 8192
Acinetobacter baumannii ATCC 17978 (AB-SEN), evolved line 6
  Relative MIC: 8192
Acinetobacter baumannii ATCC 17978 (AB-SEN), evolved line 7
  Relative MIC: 8192
Acinetobacter baumannii ATCC 17978 (AB-SEN), evolved line 8
  Relative MIC: 4096
Acinetobacter baumannii ATCC 17978 (AB-SEN), evolved line 9
  Relative MIC: 8192
Acinetobacter baumannii ATCC 17978 (AB-SEN), evolved line 10
  Relative MIC: 1024
Acinetobacter baumannii ATCC BAA 1605 (AB-MDR), evolved line 2
  Relative MIC: 8192
Acinetobacter baumannii ATCC BAA 1605 (AB-MDR), evolved line 4
  Relative MIC: 2048
Acinetobacter baumannii ATCC BAA 1605 (AB-MDR), evolved line 5
  Relative MIC: 8192
Acinetobacter baumannii ATCC BAA 1605 (AB-MDR), evolved line 6
  Relative MIC: 8192
Acinetobacter baumannii ATCC BAA 1605 (AB-MDR), evolved line 7
  Relative MIC: 8192
Acinetobacter baumannii ATCC BAA 1605 (AB-MDR), evolved line 8
  Relative MIC: 4096
Acinetobacter baumannii ATCC BAA 1605 (AB-MDR), evolved line 9
  Relative MIC: 8192
Acinetobacter baumannii ATCC BAA 1605 (AB-MDR), evolved line 10
  Relative MIC: 1024
Acinetobacter baumannii ATCC BAA 1605 (AB-MDR), evolved line 1
  Relative MIC: 2048
Acinetobacter baumannii ATCC BAA 1605 (AB-MDR), evolved line 3
  Relative MIC: 512
